Reference: patent US20220362330A1, “Compositions and Methods for Increasing Epithelial Barrier Function” (The Board of Trustees of the Leland Stanford Junior …, priority 2019, published 2022)

Key:
DSG1 protein = DSG1 protein levels in vaginal tissue, immunofluorescent staining and confocal microscopy; type: in vivo, mice; details: progestin-treated mice vs mice in estrus
Protocol: Excised mouse vaginas were formaldehyde fixed and paraffin embedded (FFPE), and 10 μm sections mounted on glass slides and de-paraffinized by sequential immersion in 100% xylene, 100% ethanol, 96% ethanol, and sterile DEPC-treated water. Antigen retrieval was performed using 10 mM sodium citrate buffer (pH 6.0) containing 0.05% Tween 20 (both Sigma-Aldrich) (20 minutes at 95° C.). After 3 PBS washes, sections were incubated overnight in 10% normal goat serum (Abcam, Cambridge Mass.) at 4° C., then incubated for 1 h at ambient temperate with rabbit anti-desmoglein-1 (clone EPR6766(B)) antibody, washed and incubated for 1 h with AlexaFluor® 488-labeled goat anti-rabbit IgG (antibodies from Abcam) (all antibodies were diluted in PBS with 1% BSA and 0.05% Tween 20). Sections were stained with DAPI and evaluated for levels of DSG1 protein (defined by calculating pixel numbers per 100 μm^2) using confocal microscopy and ImageJ software.

HSV-1 = test: Genital HSV-1 GFP infection, virus replication in vaginal epithelium; type: in vivo, mice; details: 1.5 ug/30 uL ivag 24 h prior to 3×10^3 PFU HSV-1 GFP; tissue 24 h after infection
Protocol: Estrus-stage or DMPA-treated mice were intravaginally administered vehicle or recombinant mouse Fc-EFNA3 at 1.5 ug/30 uL 24 h prior to genital infection with 3×10^3 PFU HSV-1q GFP (fluorescent virus). Vaginal tissue was recovered 24 h after infection and evaluated for HSV-1 replication in the vaginal epithelium using confocal microscopy. […] To evaluate if treatment with rm-EphrinA3 protects mice from lethal HSV-2 infection, DMPA-treated mice were intravaginally administered Fc- or His-tagged versions of the rm-protein prior to infection. […] Because the microarray data indicated EphrinA1, EphrinA2, EphrinA3, EphrinA4, and EphrinA5 were upstream regulators of Dsg1 and Dsc1 expression in the mouse vagina, we hypothesized that capacity of EphrinA3 to increase cell-cell adhesion molecule expression may be shared by other members of the EphrinA family.

[1] = system: claudin-1, occludin, and tight junction protein 1; test: Gene expression of other cell-cell adhesion molecules in vaginal tissue; type: in vivo, mice
genital mucosal barrier = test: Murine tissue permeability assay, low molecular weight fluorescent molecules given intravaginally; type: in vivo, mice; details: germ-free mice
genital mucosa = test: Entry of activated hPBMCs into vaginal tissue of humanized mice; type: in vivo, hPBMC-engrafted NSG mice; details: CFSE-labeled activated hPBMCs ivag, 15 h; DMPA vs DMPA and E cream
Protocol: Because mice treated with DMPA and E were HSV-2 resistant and DMPA facilitated entry of leukocytes into vaginal tissue, it was posited that exogenous E blocks HIV-1 acquisition in a humanized mouse model of cell-associated HIV transmission. Human PBMC (hPBMCs)-engrafted NSG mice treated with DMPA or DMPA and E cream were ivag inoculated with CFSE-labeled activated hPBMCs. 15 h later, entry of these cells into vaginal tissue was examined by confocal microscopy. […] Humanized NSG mice treated as described above were also ivag infected with cell-associated HIV-1 (10^6 hPBMCs infected with HIV-1 Ba-L). 10 days later, serum was collected to quantify HIV-1 load via qRT-PCR.
To evaluate mucosal permeability to activated leukocytes, 10^6 human peripheral blood mononuclear cells (hPBMC)/ml were plated in RPMI-1640 supplemented with 10% FBS, 2 mM L-glutamine, 1 mM sodium pyruvate, non-essential amino acids, 50 μM 2-mercaptoethanol, 100 U/ml penicillin, 100 μg/ml streptomycin and 50 μg/ml gentamycin (Mediatech, Manassas, Va.) (henceforth termed complete medium). Plated cells were stimulated for 48 hours with 5 μg/ml of phytohemagglutinin (PHA) (Sigma-Aldrich, St. Louis Mo.), centrifuged, re-suspended (2×10^6 cells/ml) in complete media supplemented with 10 IU/ml recombinant human IL-2 (rhIL-2) (PeproTech, Rocky Hill, N.J.), and incubated another 5 days. […]

DSG1 = DSG1 gene expression in ectocervical biopsies from women; type: in vivo; details: 1 month after initiating DMPA vs no hormonal contraceptive
Text: FIG. 3 is a graph showing the effect of DMPA on ectocervical DSG1 gene expression in women. Ectocervical biopsy tissue collected from the same women; before they started (No HC) and 1 month after they initiated DMPA.
To confirm the relevance of the mouse model findings, DMPA-mediated changes in mucosal permeability was explored with ectocervical biopsies from women using no hormonal contraceptive and again 1 month after they initiated DMPA.
Human ectocervical and murine vaginal tissues were immediately immersed in 1 mL of RNAlater® (Qiagen), stored for 24 h at 4° C., and stored long-term at −80° C. RNA isolated using the RNeasy Lipid Tissue Kit (Qiagen) using manufacturer's instructions was re-suspended in nuclease-free water and quantified using a NanoDrop spectrophotometer (Thermo Scientific). The following mouse primers were utilized: desmocollin 1 (Mm00496525_ml), desmoglein-1α (Mm00809994_s1), ephrinA3 (Mm01212723_g1) and pyruvate carboxylase (Mm00500992_ml) as housekeeping reference gene (all from Thermo Scientific). […] To define relative gene expression, 100 ng of RNA was mixed with TaqMan® RNA-to-Ct™ 1-Step Kit and adequate primer (final volume of 10 μL/well) using manufacturer's instructions (Life Technologies). qRT-PCR was performed using a Quantstudio3 Thermal Cycler, and data analyzed via Quanstudio Software (Applied Biosystems).

## CC(=O)O[C@]1(C(C)=O)CC[C@H]2[C@@H]3C[C@H](C)C4=CC(=O)CC[C@]4(C)[C@H]3CC[C@@]21C [DMPA]
DSG1 protein
  DSG1a protein expression in vaginal tissue: significantly reduced
HSV-1
  Foci of virus replication observed in vaginal epithelium: observed
[1]
  gene expression of claudin-1, occludin, and tight junction protein 1: did not alter
Genital mucosal barrier
  permeability: increased permeability
Genital mucosa
  penetration of activated hPBMCs into genital mucosa: more readily penetrated the genital mucosa
DSG1
  DSG1 expression in ectocervical tissue: significantly lower
